Data on 12 compounds can be found in ChEMBL document CHEMBL1126328, “The rotenoid core structure: Modifications to define the requirements of the toxophore” (Bioorg Med Chem Lett, 1992).

Experiment [1] is described as follows: Inhibition of NADH dehydrogenase in blowfly flight-muscle submitochondrial preparation. Format: tissue-based, Muscle tissue.
Another experiment has as its system Phormia regina. The experiment can be described thus: Relative activity against blowfly flight muscle submitochondrial NADH dehydrogenase compared to rotenone. To be noted: Muscle tissue.
A short description of experiment [2]: Inhibition of NADH dehydrogenase in blowfly flight-muscle submitochondrial preparation experiment I. Type of experiment: tissue-based, Phormia regina, Muscle tissue.
Experiment [3] is described as follows: Inhibition of NADH dehydrogenase in blowfly flight-muscle submitochondrial preparation experiment II. Set-up: species or system Phormia regina, Muscle tissue.

As usually defined, the IC50 is the concentration at which inhibition is half-maximal. Low readings indicate higher potency, high ones lower potency. As to `COc1cc2c(cc1OC)[C@@H]1[C@H](O)c3ccc4c(c3O[C@@H]1CO2)Cc1cc(C(C)C)oc1C4`, the IC50 in experiment [1] amounted to 0.025 µM. Also, the Relative activity with Phormia regina stood at 1%.
For `COc1cc2c(cc1OC)[C@@H]1C(=O)c3ccccc3O[C@@H]1CS2`, in that order: 0.3 µM and 0.083%.
`COc1cc2c(cc1OC)[C@@H]1C(=O)c3ccccc3O[C@@H]1CO2` gave a half-inhibitory concentration (IC50) in experiment [1] of 0.2 µM. The same compound came in with a Relative activity in the experiment on Phormia regina of 0.125%.
For `COc1cc2c(cc1OC)[C@H]1C(=O)c3ccc4c(c3O[C@@H]1CO2)Cc1cc(C(C)C)oc1C4`, in that order: 0.005 µM and 30%.
The like results for `COc1ccc2c(c1)O[C@@H]1COc3cc(OC)c(OC)cc3[C@@H]1C2=O` [MUNDOSERONE] were, in that order, 0.015 µM and 1.67%.
For `O=C1c2ccccc2O[C@@H]2COc3ccccc3[C@H]12`, in that order: 5 µM and 0.005%.
`COc1cc2c(cc1OC)[C@@H]1C(=O)c3ccc4c(c3O[C@@H]1CO2)Cc1cc(C(C)C)oc1C4`: 0.002 µM corresponded to half-maximal inhibition in experiment [1] (IC50). Besides, in the experiment on Phormia regina, the Relative activity was found to be 75%.
The like results for `COc1cc2c(cc1OC)[C@H]1[C@H](O)c3ccc4c(c3O[C@@H]1CO2)Cc1cc(C(C)C)oc1C4` were, in that order, 0.4 µM and 0.063%.
For `COc1ccc2c(c1)O[C@@H]1COc3ccccc3[C@@H]1C2=O`, in that order: 8 µM and 0.0031%.
As to `C=C(C)[C@H]1CC2=C(Cc3ccc4c(c3C2)O[C@@H]2COc3cc(OC)c(OC)cc3[C@@H]2C4=O)O1`, the IC50 in experiment [2] turned out to be 0.00025 µM; in experiment [3], 0.0015 µM. The compound further came in with a Relative activity in the experiment on Phormia regina of 100%.
With `O=C1c2ccccc2O[C@@H]2CSc3ccccc3[C@H]12`, in experiment [1], half-maximal inhibition (IC50) required 10 µM. This compound also came in with a Relative activity with Phormia regina of 0.0025%.
For `C=C(C)[C@H]1CC2=C(Cc3ccc4c(c3C2)O[C@@H]2COc3cc(OC)c(OC)cc3[C@H]2C4=O)O1`, in that order: 0.0005 µM and 50%.
